Source: PubChem BioAssay AID1963852 (Molecular Pharmacology Branch, DTP, NCI, 2024)

Tested on: 282377-053-R-J1-PDC complex spheroid viability
Assay: Anticancer human tumor 282377-053-R-J1-PDC patient-derived colon adenocarcinoma cell line growth inhibition [POLQ]
Settings: for IC50: curve of first compound; for viability, T/C: stronger effect = lower value; active = viability on the fitted dose curve at most 10% of control; inactive = the rest
Summary of the method: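 PDC + HUVEC + MSC complex spheroids; POLQ inhibitors ± partner drugs; top conc. at/near clinical Cmax, else 10 microM (SN-38 1 microM), half-log dilutions; 37 degrees C, 5% CO2.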

[1] = second compound 0.0316 µM, first compound 0.0316 µM
[2] = second compound 0.0316 µM, first compound 0.1 µM
[3] = second compound 0.0316 µM, first compound 0.316 µM
[4] = second compound 0.0316 µM, first compound 1 µM
[5] = second compound 0.0316 µM, first compound 3.16 µM
[6] = second compound 0.0316 µM, first compound 10 µM
[7] = second compound 0.1 µM, first compound 0.0316 µM
[8] = second compound 0.1 µM, first compound 0.1 µM
[9] = second compound 0.1 µM, first compound 0.316 µM
[10] = second compound 0.1 µM, first compound 1 µM
[11] = second compound 0.1 µM, first compound 3.16 µM
[12] = second compound 0.1 µM, first compound 10 µM
[13] = second compound 0.316 µM, first compound 0.0316 µM
[14] = second compound 0.316 µM, first compound 0.1 µM
[15] = second compound 0.316 µM, first compound 0.316 µM
[16] = second compound 0.316 µM, first compound 1 µM
[17] = second compound 0.316 µM, first compound 3.16 µM
[18] = second compound 0.316 µM, first compound 10 µM
[19] = second compound 1 µM, first compound 0.0316 µM
[20] = second compound 1 µM, first compound 0.1 µM
[21] = second compound 1 µM, first compound 0.316 µM
[22] = second compound 1 µM, first compound 1 µM
[23] = second compound 1 µM, first compound 3.16 µM
[24] = second compound 1 µM, first compound 10 µM
[25] = second compound 3.16 µM, first compound 0.0316 µM
[26] = second compound 3.16 µM, first compound 0.1 µM
[27] = second compound 3.16 µM, first compound 0.316 µM
[28] = second compound 3.16 µM, first compound 1 µM
[29] = second compound 3.16 µM, first compound 3.16 µM
[30] = second compound 3.16 µM, first compound 10 µM
[31] = second compound 10 µM, first compound 0.0316 µM
[32] = second compound 10 µM, first compound 0.1 µM
[33] = second compound 10 µM, first compound 0.316 µM
[34] = second compound 10 µM, first compound 1 µM
[35] = second compound 10 µM, first compound 3.16 µM
[36] = second compound 10 µM, first compound 10 µM
[37] = second compound 0.0316 µM, first compound 0.00316 µM
[38] = second compound 0.0316 µM, first compound 0.01 µM
[39] = second compound 0.1 µM, first compound 0.00316 µM
[40] = second compound 0.1 µM, first compound 0.01 µM
[41] = second compound 0.316 µM, first compound 0.00316 µM
[42] = second compound 0.316 µM, first compound 0.01 µM
[43] = second compound 1 µM, first compound 0.00316 µM
[44] = second compound 1 µM, first compound 0.01 µM
[45] = second compound 3.16 µM, first compound 0.00316 µM
[46] = second compound 3.16 µM, first compound 0.01 µM
[47] = second compound 10 µM, first compound 0.00316 µM
[48] = second compound 10 µM, first compound 0.01 µM
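Note: spheroids exposed to compounds for seven days.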
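Throughout, for viability, T/C: 100% = DMSO vehicle control viability.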

CC1COCCN1c1cc(-c2ccnn2C)c2ccnc(-c3ccn[nH]3)c2n1 (stereo not drawn) + COC1C(OC(N)=O)C(O)C(Oc2ccc3c(O)c(NC(=O)c4ccc(O)c(CC=C(C)C)c4)c(=O)oc3c2C)OC1(C)C
677 nM: IC50 (second compound 1 µM)
589 nM: IC50 (second compound 0.316 µM)
398 nM: IC50 (second compound 0.1 µM)
642 nM: IC50 (second compound 10 µM)
inactive: viability, T/C [1] 107% | viability, T/C [2] 99.6% | viability, T/C [3] 52.5% | viability, T/C [4] 34.2% | viability, T/C [5] 26.9% | viability, T/C [6] 25.4% | viability, T/C [7] 95.2% | viability, T/C [8] 80.5% | viability, T/C [9] 52.7% | viability, T/C [10] 36.5% | viability, T/C [11] 33.9% | viability, T/C [12] 27.6% | viability, T/C [13] 95.6% | viability, T/C [14] 87.5% | viability, T/C [15] 59.9% | viability, T/C [16] 41.1% | viability, T/C [17] 25.9% | viability, T/C [18] 20.4% | viability, T/C [19] 89.1% | viability, T/C [20] 85.3% | viability, T/C [21] 68.4% | viability, T/C [22] 40% | viability, T/C [23] 27.4% | viability, T/C [24] 21.4% | viability, T/C [25] 102% | viability, T/C [26] 94.8% | viability, T/C [27] 57.3% | viability, T/C [28] 32.5% | viability, T/C [29] 26.5% | viability, T/C [30] 22.6% | viability, T/C [31] 121% | viability, T/C [32] 80.8% | viability, T/C [33] 66.7% | viability, T/C [34] 39.7% | viability, T/C [35] 33.3% | viability, T/C [36] 21.8%
377 nM: IC50 (second compound 0.0316 µM)
450 nM: IC50 (second compound 3.16 µM)

C=CC(=O)N1CCN(c2nc(=O)n(-c3c(C)ccnc3C(C)C)c3nc(-c4c(O)cccc4F)c(F)cc23)C(C)C1 (stereo not drawn) + COC1C(OC(N)=O)C(O)C(Oc2ccc3c(O)c(NC(=O)c4ccc(O)c(CC=C(C)C)c4)c(=O)oc3c2C)OC1(C)C
> 10000 nM: IC50 (second compound 0.0316 µM) | IC50 (second compound 0.1 µM) | IC50 (second compound 0.316 µM) | IC50 (second compound 1 µM) | IC50 (second compound 3.16 µM) | IC50 (second compound 10 µM)
inactive: viability, T/C [1] 114% | viability, T/C [2] 103% | viability, T/C [3] 102% | viability, T/C [4] 94.9% | viability, T/C [5] 111% | viability, T/C [6] 94.4% | viability, T/C [7] 107% | viability, T/C [8] 116% | viability, T/C [9] 96.5% | viability, T/C [10] 115% | viability, T/C [11] 108% | viability, T/C [12] 102% | viability, T/C [13] 105% | viability, T/C [14] 124% | viability, T/C [15] 113% | viability, T/C [16] 100% | viability, T/C [17] 113% | viability, T/C [18] 77% | viability, T/C [19] 94.9% | viability, T/C [20] 114% | viability, T/C [21] 114% | viability, T/C [22] 98.1% | viability, T/C [23] 89.6% | viability, T/C [24] 85.4% | viability, T/C [25] 115% | viability, T/C [26] 113% | viability, T/C [27] 102% | viability, T/C [28] 90.1% | viability, T/C [29] 95.2% | viability, T/C [30] 90.5% | viability, T/C [31] 106% | viability, T/C [32] 109% | viability, T/C [33] 105% | viability, T/C [34] 114% | viability, T/C [35] 112% | viability, T/C [36] 111%

CCc1c2c(nc3ccc(O)cc13)-c1cc3c(c(=O)n1C2)COC(=O)[C@]3(O)CC + Cc1cccc(N(C)C(=O)C2C(O)CCN2c2nc(C)cc(C(F)(F)F)c2C#N)c1
inactive: viability, T/C [37] 122% | viability, T/C [38] 76.2% | viability, T/C [1] 51.8% | viability, T/C [2] 49.2% | viability, T/C [3] 40.1% | viability, T/C [4] 23.2% | viability, T/C [39] 97.1% | viability, T/C [40] 81.6% | viability, T/C [7] 72% | viability, T/C [8] 62.4% | viability, T/C [9] 41.5% | viability, T/C [10] 21.8% | viability, T/C [41] 102% | viability, T/C [42] 74.9% | viability, T/C [13] 54.4% | viability, T/C [14] 52% | viability, T/C [15] 41.4% | viability, T/C [16] 25.7% | viability, T/C [43] 110% | viability, T/C [44] 86.8% | viability, T/C [19] 53.5% | viability, T/C [20] 51.6% | viability, T/C [21] 44.8% | viability, T/C [22] 17.2% | viability, T/C [45] 104% | viability, T/C [46] 69.3% | viability, T/C [25] 63.5% | viability, T/C [26] 44.4% | viability, T/C [27] 40.8% | viability, T/C [28] 22.5% | viability, T/C [47] 106% | viability, T/C [48] 87.5% | viability, T/C [31] 49.5% | viability, T/C [32] 42.5% | viability, T/C [33] 37.4% | viability, T/C [34] 16.7%
116 nM: IC50 (second compound 1 µM)
70.2 nM: IC50 (second compound 3.16 µM)
180 nM: IC50 (second compound 0.1 µM)
71.5 nM: IC50 (second compound 0.316 µM)
57.5 nM: IC50 (second compound 10 µM)
50.3 nM: IC50 (second compound 0.0316 µM)

CCc1c2c(nc3ccc(O)cc13)-c1cc3c(c(=O)n1C2)COC(=O)[C@]3(O)CC + COC1C(OC(N)=O)C(O)C(Oc2ccc3c(O)c(NC(=O)c4ccc(O)c(CC=C(C)C)c4)c(=O)oc3c2C)OC1(C)C
inactive: viability, T/C [37] 111% | viability, T/C [38] 71.8% | viability, T/C [1] 59.8% | viability, T/C [2] 54% | viability, T/C [3] 30.7% | viability, T/C [4] 19.4% | viability, T/C [39] 108% | viability, T/C [40] 90.1% | viability, T/C [7] 64.6% | viability, T/C [8] 51.8% | viability, T/C [9] 37.6% | viability, T/C [10] 19.2% | viability, T/C [41] 124% | viability, T/C [42] 81.2% | viability, T/C [13] 60.7% | viability, T/C [14] 51% | viability, T/C [15] 37.7% | viability, T/C [16] 18.6% | viability, T/C [43] 116% | viability, T/C [44] 93.8% | viability, T/C [19] 49.3% | viability, T/C [20] 59.1% | viability, T/C [21] 30.9% | viability, T/C [22] 21.6% | viability, T/C [45] 115% | viability, T/C [46] 75.6% | viability, T/C [25] 46.3% | viability, T/C [26] 47.8% | viability, T/C [27] 38.6% | viability, T/C [28] 25% | viability, T/C [47] 102% | viability, T/C [48] 72.6% | viability, T/C [31] 56% | viability, T/C [32] 39.2% | viability, T/C [33] 41.9% | viability, T/C [34] 16.6%
78.9 nM: IC50 (second compound 1 µM)
41.2 nM: IC50 (second compound 3.16 µM)
115 nM: IC50 (second compound 0.1 µM)
114 nM: IC50 (second compound 0.316 µM)
92.1 nM: IC50 (second compound 0.0316 µM)
52.1 nM: IC50 (second compound 10 µM)
